According to patent publication US10918713B2, “Epitopes from allergen proteins and methods and uses for immune response modulation” (LA JOLLA INSTITUTE FOR ALLERGY AND IMMUNOLOGY, priority 2012, dated 2021):
Values joined by “and” are separate entries in the source; they are usually repeats but may differ in a detail not shown here. Identical values can stand only once.

How the values were obtained:
Format in all cases: cell-based, human
[1] = tested on: PBMC from allergic donors; experiment: IL-5 ELISPOT with extract-stimulated short-term lines; conditions: positive donor/peptide response
Protocol: (§1) Spots were counted by computer-assisted image analysis (Zeiss, KS-ELISPOT reader, Munich, Germany).
(§2) Each assay was performed in triplicate. The level of statistical significance was determined with a Student's t-test using the mean of triplicate values of the response against relevant pools or individual peptides versus the response against the DMSO control.

[2] = tested on: PBMC from allergic donors; experiment: IFN-γ ELISPOT with extract-stimulated short-term lines; conditions: positive donor/peptide response
Protocol: as §1, §2

[3] = tested on: PBMC from allergic donors; experiment: Dual ELISPOT, total IL-5 and IFN-γ response (SFC); conditions: sum of IFNg and IL-5
Protocol: as §1, §2

Row | Structure (SMILES) | Response (SFC/10^6) IL-5 ([1]; one donor per table line) | Response (SFC/10^6) IFNg ([2]; one donor per table line) | Response (SFC/10^6) Total ([3]; one donor per table line) | Response (SFC/10^6) IL-5 ([1]; each table line is one donor) | Response (SFC/10^6) Total ([3]; each table line is one donor) | Response (SFC/10^6) IFNg ([2]; each table line is one donor)
1 | CC(C)[C@H](NC(=O)CNC(=O)[C@H](CO)NC(=O)[C@H](Cc1ccccc1)NC(=O)[C@H](C)NC(=O)[C@H](Cc1c[nH]c2ccccc12)NC(=O)[C@H](CS)NC(=O)[C@@H](N)CO)C(=O)N[C@@H](C)C(=O)N[C@@H](C)C(=O)N[C@H](C(=O)N[C@@H](CCC(=O)O)C(=O)N[C@@H](CO)C(=O)N[C@@H](C)C(=O)N[C@@H](Cc1ccc(O)cc1)C(=O)O)[C@@H](C)O [3324.0832] | 460 SFC/10^6 and 773 SFC/10^6 | 843 SFC/10^6 and 233 SFC/10^6 | 1303 SFC/10^6 and 1007 SFC/10^6 | – | – | –
2 | CC[C@H](C)[C@H](NC(=O)[C@@H](NC(=O)[C@@H](NC(=O)[C@H](C)NC(=O)[C@@H](NC(=O)[C@H](C)NC(=O)[C@H](CO)NC(=O)[C@H](Cc1c[nH]cn1)NC(=O)[C@@H](NC(=O)[C@H](CCC(N)=O)NC(=O)[C@H](C)NC(=O)[C@H](CC(C)C)NC(=O)[C@H](C)NC(=O)[C@H](CCC(=O)O)NC(=O)[C@@H](N)CCCNC(=N)N)[C@@H](C)O)[C@@H](C)CC)C(C)C)[C@@H](C)CC)C(=O)O [3324.0840] | 477 SFC/10^6 and 900 SFC/10^6 | 1407 SFC/10^6 | 1883 SFC/10^6 and 900 SFC/10^6 | – | – | –
3 | CC[C@H](C)[C@H](NC(=O)[C@H](CCSC)NC(=O)[C@H](CCCNC(=N)N)NC(=O)[C@H](Cc1ccccc1)NC(=O)[C@H](CCCCN)NC(=O)[C@@H](NC(=O)[C@H](CCSC)NC(=O)[C@H](CC(N)=O)NC(=O)[C@H](Cc1ccc(O)cc1)NC(=O)[C@@H](NC(=O)[C@@H](N)CCC(=O)O)[C@@H](C)CC)C(C)C)C(=O)N[C@@H](C)C(=O)NCC(=O)N[C@@H](CCC(N)=O)C(=O)N[C@@H](CCC(=O)O)C(=O)O [3324.0978] | 167 SFC/10^6 and 1100 SFC/10^6 | 667 SFC/10^6 | 167 SFC/10^6 and 1100 SFC/10^6 and 667 SFC/10^6 | – | – | –
4 | CC[C@H](C)[C@H](NC(=O)[C@H](CCC(=O)O)NC(=O)[C@H](CCCNC(=N)N)NC(=O)[C@H](Cc1c[nH]c2ccccc12)NC(=O)[C@H](CCCNC(=N)N)NC(=O)[C@H](Cc1c[nH]cn1)NC(=O)[C@@H](N)CCC(=O)O)C(=O)N[C@@H](Cc1ccc(O)cc1)C(=O)N[C@@H](CC(N)=O)C(=O)N[C@@H](CCSC)C(=O)N[C@H](C(=O)N[C@@H](CCCCN)C(=O)N[C@@H](Cc1ccccc1)C(=O)N[C@@H](CCCNC(=N)N)C(=O)N[C@@H](CCSC)C(=O)O)C(C)C [3324.0986] | 300 SFC/10^6 and 80 SFC/10^6 and 402 SFC/10^6 | 1007 SFC/10^6 | 300 SFC/10^6 and 1007 SFC/10^6 and 80 SFC/10^6 and 402 SFC/10^6 | – | – | –
5 | CC[C@H](C)[C@H](NC(=O)[C@@H]1CCCN1C(=O)[C@H](CC(N)=O)NC(=O)[C@H](C)NC(=O)[C@H](Cc1ccc(O)cc1)NC(=O)[C@@H](N)CCCNC(=N)N)C(=O)N[C@@H](C)C(=O)N[C@@H](Cc1ccccc1)C(=O)N[C@@H](Cc1ccccc1)C(=O)N[C@@H](CCCNC(=N)N)C(=O)N[C@@H](CCCCN)C(=O)N[C@@H](CCC(=O)O)C(=O)N1CCC[C@H]1C(=O)N[C@@H](CC(C)C)C(=O)N[C@@H](CCCCN)C(=O)O [3324.1138] | 1697 SFC/10^6 | 440 SFC/10^6 | 2137 SFC/10^6 | – | – | –
6 | CC[C@H](C)[C@H](NC(=O)[C@H](CCC(=O)O)NC(=O)[C@H](Cc1c[nH]c2ccccc12)NC(=O)[C@@H](NC(=O)CNC(=O)[C@@H](N)CC(=O)O)C(C)C)C(=O)N[C@@H](CCCCN)C(=O)N[C@@H](CO)C(=O)N[C@@H](CC(=O)O)C(=O)N[C@@H](CCCCN)C(=O)N1CCC[C@H]1C(=O)N[C@@H](CC(C)C)C(=O)N[C@@H](CCCCN)C(=O)NCC(=O)N1CCC[C@H]1C(=O)O [3324.1139] | 83 SFC/10^6 | 103 SFC/10^6 and 83 SFC/10^6 | 103 SFC/10^6 and 167 SFC/10^6 | 577 SFC/10^6 and 287 SFC/10^6 | 577 SFC/10^6 and 287 SFC/10^6 | –
7 | CC[C@H](C)[C@H](NC(=O)[C@@H](NC(=O)[C@H](CCC(=O)O)NC(=O)[C@H](CC(=O)O)NC(=O)[C@H](Cc1ccccc1)NC(=O)[C@@H](NC(=O)[C@@H](N)CC(N)=O)C(C)C)C(C)C)C(=O)N1CCC[C@H]1C(=O)N[C@H](C(=O)N[C@@H](C)C(=O)N[C@@H](Cc1ccccc1)C(=O)N[C@H](C(=O)N[C@H](C(=O)NCC(=O)N[C@@H](CCCCN)C(=O)O)C(C)C)[C@@H](C)O)[C@@H](C)O [3324.1141] | – | – | – | 2258 SFC/10^6 and 820 SFC/10^6 | 2258 SFC/10^6 and 1083 SFC/10^6 | 263 SFC/10^6
8 | CC[C@H](C)[C@H](NC(=O)[C@H](CC(N)=O)NC(=O)[C@H](CC(C)C)NC(=O)[C@@H](NC(=O)[C@H](CC(C)C)NC(=O)[C@@H](NC(=O)[C@H](CCCCN)NC(=O)[C@H](C)NC(=O)[C@H](CC(=O)O)NC(=O)[C@@H](N)CO)[C@@H](C)O)C(C)C)C(=O)N[C@@H](CCCCN)C(=O)N[C@@H](Cc1ccc(O)cc1)C(=O)N[C@H](C(=O)N[C@@H](CCCNC(=N)N)C(=O)N1CCC[C@H]1C(=O)O)[C@@H](C)O [3324.1142] | – | – | – | 227 SFC/10^6 and 147 SFC/10^6 and 1547 SFC/10^6 | 227 SFC/10^6 and 147 SFC/10^6 and 1697 SFC/10^6 | 150 SFC/10^6
9 | CC[C@H](C)[C@H](NC(=O)[C@@H](NC(=O)[C@H](CCCNC(=N)N)NC(=O)[C@H](CC(C)C)NC(=O)[C@H](C)NC(=O)[C@H](CCC(=O)O)NC(=O)[C@@H](NC(=O)[C@H](CC(C)C)NC(=O)[C@@H](NC(=O)[C@H](C)NC(=O)[C@@H](NC(=O)[C@H](Cc1ccc(O)cc1)NC(=O)[C@H](C)NC(=O)[C@@H](N)CC(=O)O)C(C)C)[C@@H](C)O)[C@@H](C)O)C(C)C)C(=O)N[C@@H](C)C(=O)O [3324.1167] | – | – | – | 410 SFC/10^6 and 1743 SFC/10^6 | 1427 SFC/10^6 and 1743 SFC/10^6 | 1017 SFC/10^6
10 | CC[C@H](C)[C@H](NC(=O)[C@H](CCCCN)NC(=O)[C@H](CCC(=O)O)NC(=O)[C@@H](NC(=O)[C@@H](N)CC(C)C)[C@@H](C)CC)C(=O)N[C@@H](CC(N)=O)C(=O)N[C@@H](C)C(=O)NCC(=O)N[C@@H](Cc1ccccc1)C(=O)N[C@@H](CCCCN)C(=O)N[C@@H](C)C(=O)N[C@@H](C)C(=O)N[C@H](C(=O)N[C@@H](C)C(=O)N[C@@H](C)C(=O)O)C(C)C [3324.1175] | – | – | – | 900 SFC/10^6 and 1202 SFC/10^6 and 263 SFC/10^6 | 1860 SFC/10^6 and 1202 SFC/10^6 and 263 SFC/10^6 | 960 SFC/10^6
11 | C[C@H](NC(=O)[C@@H](NC(=O)[C@H](C)NC(=O)[C@H](C)NC(=O)[C@H](C)NC(=O)[C@@H]1CCCN1C(=O)[C@@H](NC(=O)[C@H](C)NC(=O)[C@@H](NC(=O)[C@H](C)NC(=O)[C@H](Cc1ccc(O)cc1)NC(=O)[C@H](C)NC(=O)[C@H](C)NC(=O)[C@H](C)NC(=O)[C@@H]1CCCN1)[C@@H](C)O)[C@@H](C)O)[C@@H](C)O)C(=O)O [3324.1184] | – | – | – | 1637 SFC/10^6 | 58 SFC/10^6 and 1637 SFC/10^6 | 58 SFC/10^6
12 | CC[C@H](C)[C@H](NC(=O)[C@H](Cc1ccccc1)NC(=O)[C@H](C)NC(=O)[C@@H](N)CC(=O)O)C(=O)N[C@@H](C)C(=O)N[C@@H](C)C(=O)N[C@@H](CC(C)C)C(=O)N[C@H](C(=O)N[C@@H](CCC(=O)O)C(=O)N[C@@H](C)C(=O)N[C@@H](CC(C)C)C(=O)N[C@@H](CCCNC(=N)N)C(=O)N[C@H](C(=O)N[C@H](C(=O)N[C@@H](C)C(=O)O)[C@@H](C)CC)C(C)C)[C@@H](C)O [3324.1432] | – | – | – | 540 SFC/10^6 | 713 SFC/10^6 and 540 SFC/10^6 | 713 SFC/10^6
13 | CC[C@H](C)[C@H](NC(=O)[C@H](Cc1ccccc1)NC(=O)[C@H](CCCCN)NC(=O)[C@H](Cc1ccc(O)cc1)NC(=O)[C@@H](NC(=O)[C@H](CCC(=O)O)NC(=O)[C@H](Cc1ccc(O)cc1)NC(=O)[C@H](C)NC(=O)CN)[C@@H](C)O)C(=O)N1CCC[C@H]1C(=O)N[C@@H](CO)C(=O)N[C@@H](CC(C)C)C(=O)N[C@@H](CCC(=O)O)C(=O)N[C@@H](C)C(=O)N[C@@H](C)C(=O)O [3324.1433] | – | – | – | 247 SFC/10^6 | 247 SFC/10^6 and 208 SFC/10^6 and 153 SFC/10^6 | 208 SFC/10^6 and 153 SFC/10^6
14 | CC[C@H](C)[C@H](NC(=O)[C@H](C)NC(=O)[C@H](CCCCN)NC(=O)[C@H](CC(N)=O)NC(=O)[C@H](Cc1ccccc1)NC(=O)[C@H](C)NC(=O)CNC(=O)[C@H](CCC(=O)O)NC(=O)[C@H](Cc1ccccc1)NC(=O)[C@@H](NC(=O)[C@@H](NC(=O)[C@H](Cc1ccccc1)NC(=O)[C@H](CCCCN)NC(=O)[C@H](CC(=O)O)NC(=O)[C@@H](N)CC(N)=O)[C@@H](C)O)C(C)C)C(=O)O [3324.1442] | – | – | – | 400 SFC/10^6 | 400 SFC/10^6 and 93 SFC/10^6 | 93 SFC/10^6
